Data taken from patent US8383094B2, “Hepatitis C virus inhibitors” (Bristol-Myers Squibb Company, priority 2008, dated 2013).
Where two headings read alike, the source gives them in different places.

Tested on: HCV 1b genotype
Assay: HCV Replicon assay (HCV-neo replicon cells, wild-type)
Format: cell-based
Conditions: HCV 1b genotype replicon, read-out: 1b EC50 (in μM or range)
Description: An HCV Replicon assay was utilized in the present disclosure, and was prepared, conducted and validated as described in commonly owned PCT/US2006/022197 and in O′Boyle et. al. Antimicrob Agents Chemother, 2005 April; 49(4):1346-53. Assay methods incorporating luciferase reporters have also been used as described (Apath.com).
HCV-neo replicon cells and replicon cells containing mutations in the NS5A region were used to test the currently described family of compounds. The compounds were determined to have more than 10-fold less inhibitory activity on cells containing mutations than wild-type cells. Thus, the compounds of the present disclosure can be effective in inhibiting the function of the HCV NS5A protein and are understood to be as effective in combinations as previously described in application PCT/US2006/022197 and commonly owned WO/04014852. Further, the compounds of the present disclosure can be effective against the HCV 1b genotype. It should also be understood that the compounds of the present disclosure can inhibit multiple genotypes of HCV. […] In one embodiment, compounds of the present disclosure are inhibitory versus 1a, 1b, 2a, 2b, 3a, 4a, and 5a genotypes.

[1] = Hepatitis C virus, range class A-D

Row | SMILES | EC50 [1] [nM] | further results
1 | O=C(Nc1ccc(C#Cc2ccc(NC(=O)[C@@H]3CCCN3C(=O)[C@H]3CCCO3)cc2)cc1)C1CCC1 [Example D24, N-(4-((4-((cyclobutylcarbonyl)amino)phenyl)ethynyl)phenyl)-1-((2R)-tetrahydro-2-furanylcarbonyl)-L-prolinamide] | 1000 to 10000 | 
2 | CC(=O)N1CCC[C@H]1C(=O)Nc1ccc(C#Cc2ccc(NC(=O)[C@@H]3CCCN3C(=O)c3cccc4cccnc34)nc2)cc1 [Example D58, (2S)-1-Acetyl-N-(4-((6-((((2S)-1-(8-quinolinylcarbonyl)-2-pyrrolidinyl)carbonyl)amino)-3-pyridinyl)ethynyl)phenyl)-2-pyrrolidinecarboxamide] |  | EC50 (Hepatitis C virus): > 10000 nM
3 | O=C(Nc1ccc(C#Cc2ccc(NC(=O)[C@@H]3CCCN3C(=O)Cc3ccccc3)cc2)cc1)[C@@H]1CCCN1C(=O)Cc1ccccc1 [Example D2, (2S,2′S)-N,N′-(1,2-ethynediyldi-4,1-phenylene)bis(1-(phenylacetyl)-2-pyrrolidinecarboxamide)] | < 4.57 | 
4 | CN1C[C@@H]2C[C@H]1CN2C(C(=O)N1CCC[C@H]1C(=O)Nc1ccc(C#Cc2ccc(NC(=O)[C@@H]3CCCN3C(=O)C(c3ccccc3)N3C[C@@H]4C[C@H]3CN4C)cc2)cc1)c1ccccc1 (stereo partly drawn) [VN18, (2S,2′S)-N,N′-(1,2-ethynediyldi-4,1-phenylene)bis(1-(((1S,4S)-5-methyl-2,5-diazabicyclo[2.2.1]hept-2-yl)(phenyl)acetyl)-2-pyrrolidinecarboxamide)] |  | EC50: 130 nM
5 | C[C@@H](C(=O)N1CCC[C@H]1C(=O)Nc1ccc(C#Cc2ccc(NC(=O)[C@@H]3CCCN3C(=O)[C@H](C)c3ccccc3)cn2)nc1)c1ccccc1 [Example D54, (2S,2′S)-N,N′-(1,2-ethynediyldi-2,5-pyridinediyl)bis(1-((2R)-2-phenylpropanoyl)-2-pyrrolidinecarboxamide)] | < 4.57 | 
6 | O=C1CN(C(C(=O)N2CCC[C@H]2C(=O)Nc2ccc(C#Cc3ccc(NC(=O)[C@@H]4CCCN4C(=O)C(c4ccccc4)N4CCNC(=O)C4)cc3)cc2)c2ccccc2)CCN1 (single isomer, unassigned) [VN33] |  | EC50 (range class A-D): < 4.57 nM
7 | O=C(Nc1ccc(C#Cc2ccc(NC(=O)[C@@H]3CCCN3C(=O)c3nccn3Cc3ccccc3)cc2)cc1)[C@@H]1CCCN1C(=O)c1nccn1Cc1ccccc1 [Example D29, (2S,2′S)-N,N′-(1,2-ethynediyldi-4,1-phenylene)bis(1-((1-benzyl-1H-imidazol-2-yl)carbonyl)-2-pyrrolidinecarboxamide)] | 100 to 999 | 
8 | CS(=O)(=O)N[C@@H](C(=O)N1CCC[C@H]1C(=O)Nc1ccc(C#Cc2ccc(NC(=O)[C@@H]3CCCN3C(=O)[C@H](NS(C)(=O)=O)c3ccccc3)cc2)cc1)c1ccccc1 [VN27, (2S,2′S)-N,N′-(1,2-ethynediyldi-4,1-phenylene)bis(1-((2R)-2-((methylsulfonyl)amino)-2-phenylacetyl)-2-pyrrolidinecarboxamide)] | < 4.57 | 
9 | O=C(CC1CC1)Nc1ccc(C#Cc2ccc(NC(=O)[C@@H]3CCCN3C(=O)OCc3ccccc3)cc2)cc1 [Example D19, Benzyl (2S)-2-((4-((4-((cyclopropylacetyl)amino)phenyl)ethynyl)phenyl)carbamoyl)-1-pyrrolidinecarboxylate] | 100 to 999 | 
10 | O=C(Nc1ccc(C#Cc2ccc(NC(=O)[C@@H]3CCCN3C(=O)Cc3cccnc3)cc2)cc1)[C@@H]1CCCN1C(=O)Cc1cccnc1 [Example D39, (2S,2′S)-N,N′-(1,2-ethynediyldi-4,1-phenylene)bis(1-(3-pyridinylacetyl)-2-pyrrolidinecarboxamide)] | < 4.57 | 
11 | O=C(Nc1ccc(C#Cc2ccc(NC(=O)[C@@H]3CCCCN3C(=O)OCc3ccccc3)cc2)cc1)[C@@H]1CCCCN1C(=O)OCc1ccccc1 [Example D12, Dibenzyl (2S,2′S)-2,2′-(1,2-ethynediylbis(4,1-phenylenecarbamoyl))di(1-piperidinecarboxylate)] | 100 to 999 | 
12 | O=C(Nc1ccc(C#Cc2ccc(NC(=O)[C@@H]3CCCN3C(=O)C3(c4ccccc4)CCCC3)cc2)cc1)[C@@H]1CCCN1C(=O)C1(c2ccccc2)CCCC1 [VN5, (2S,2′S)-N,N′-(1,2-ethynediyldi-4,1-phenylene)bis(1-((1-phenylcyclopentyl)carbonyl)-2-pyrrolidinecarboxamide)] | 4.57 to 99 | 
13 | CC(=O)N1CCN(C(C(=O)N2CCC[C@H]2C(=O)Nc2ccc(C#Cc3ccc(NC(=O)[C@@H]4CCCN4C(=O)C(c4ccccc4)N4CCN(C(C)=O)CC4)cc3)cc2)c2ccccc2)CC1 (stereo partly drawn) [VN49, (2S,2′S)-N,N′-(1,2-ethynediyldi-4,1-phenylene)bis(1-((4-acetyl-1-piperazinyl)(phenyl)acetyl)-2-pyrrolidinecarboxamide)] |  | EC50 (range class A-D): 4.57 to 99 nM
14 | O=C(Nc1ccc(C#Cc2ccc(NC(=O)[C@@H]3CCCN3C(=O)[C@@H](O)c3ccccc3)cc2)cc1)[C@@H]1CCCN1C(=O)c1nc(Cl)cc2ccccc12 [Example D42, (2S)-1-((3-Chloro-1-isoquinolinyl)carbonyl)-N-(4-((4-((((2S)-1-((2S)-2-hydroxy-2-phenylacetyl)-2-pyrrolidinyl)carbonyl)amino)phenyl)ethynyl)phenyl)-2-pyrrolidinecarboxamide] |  | EC50 (Hepatitis C virus): 17 nM
15 | C[C@@](O)(C(=O)N1CCC[C@H]1C(=O)Nc1ccc(C#Cc2ccc(NC(=O)[C@@H]3CCCN3C(=O)[C@@](C)(O)c3ccccc3)cc2)cc1)c1ccccc1 [VN1, (2S,2′S)-N,N′-(1,2-ethynediyldi-4,1-phenylene)bis(1-((2S)-2-hydroxy-2-phenylpropanoyl)-2-pyrrolidinecarboxamide)] | < 4.57 | 
16 | Cn1c(C(=O)N2CCC[C@H]2C(=O)Nc2ccc(C#Cc3ccc(NC(=O)[C@@H]4CCCN4C(=O)c4cc5ccccc5n4C)cc3)cc2)cc2ccccc21 [Example D30, (2S,2′S)-N,N′-(1,2-ethynediyldi-4,1-phenylene)bis(1-((1-methyl-1H-indol-2-yl)carbonyl)-2-pyrrolidinecarboxamide)] |  | EC50 (Hepatitis C virus): 1210 nM
17 | CC(C)(C)OC(=O)N[C@H](C(=O)N1CCC[C@H]1C(=O)Nc1ccc(C#Cc2ccc(NC(=O)[C@@H]3CCCN3C(=O)[C@@H](NC(=O)OC(C)(C)C)c3ccccc3)cc2)cc1)c1ccccc1 [VN22, Step a, di-tert-butyl(1,2-ethynediylbis(4,1-phenylenecarbamoyl(2S)-2,1-pyrrolidinediyl((1S)-2-oxo-1-phenyl-2,1-ethanediyl)))biscarbamate] | < 4.57 | 
18 | CC(=O)N1CCC[C@H]1C(=O)Nc1ccc(C#Cc2ccc(NC(=O)C3CC(=O)N(CCc4cccs4)C3)cc2)cc1 (stereo partly drawn) [Example D9, 1-Acetyl-N-(4-((4-(((5-oxo-1-(2-(2-thienyl)ethyl)-3-pyrrolidinyl)carbonyl)amino)phenyl)ethynyl)phenyl)-L-prolinamide] |  | EC50 (Hepatitis C virus): 2420 nM
19 | CC(=O)N1CCN(C(C(=O)N2CCC[C@H]2C(=O)Nc2ccc(C#Cc3ccc(NC(=O)[C@@H]4CCCN4C(=O)C(c4ccccc4)N4CCN(C(C)=O)CC4)cc3)cc2)c2ccccc2)CC1 (stereo partly drawn) [VN48, (2S,2′S)-N,N′-(1,2-ethynediyldi-4,1-phenylene)bis(1-((4-acetyl-1-piperazinyl)(phenyl)acetyl)-2-pyrrolidinecarboxamide)] | < 4.57 | 
20 | CN(C)C1(C(=O)N2CCC[C@H]2C(=O)Nc2ccc(C#Cc3ccc(NC(=O)[C@@H]4CCCN4C(=O)C4(N(C)C)CCc5ccccc54)cc3)cc2)CCc2ccccc21 (stereo partly drawn) [VN42, (2S,2′S)-N,N′-(1,2-ethynediyldi-4,1-phenylene)bis(1-((1-(dimethylamino)-2,3-dihydro-1H-inden-1-yl)carbonyl)-2-pyrrolidinecarboxamide)] |  | EC50 (range class A-D): 4.57 to 99 nM
21 | COc1cccc2c(C(=O)N3CCC[C@H]3C(=O)Nc3ccc(C#Cc4ccc(NC(=O)[C@@H]5CCCN5C(=O)c5nc(Cl)cc6c(OC)cccc56)cc4)cc3)nc(Cl)cc12 [Example D33, (2S,2′S)-N,N′-(1,2-ethynediyldi-4,1-phenylene)bis(1-((3-chloro-5-methoxy-1-isoquinolinyl)carbonyl)-2-pyrrolidinecarboxamide)] | 4.57 to 99 | 
22 | CN1CCN(C(C(=O)N2CCC[C@H]2C(=O)Nc2ccc(C#Cc3ccc(NC(=O)[C@@H]4CCCN4C(=O)C(c4ccccc4)N4CCN(C)CC4)cc3)cc2)c2ccccc2)CC1 (stereo partly drawn) [VN43, (2S,2′S)-N,N′-(1,2-ethynediyldi-4,1-phenylene)bis(1-((4-methyl-1-piperazinyl)(phenyl)acetyl)-2-pyrrolidinecarboxamide)] |  | EC50 (Hepatitis C virus): 0.015 nM
23 | O=C(Nc1ccc(C#Cc2ccc(NC(=O)C3CC(=O)N(CCc4cccs4)C3)cc2)cc1)C1CC(=O)N(CCc2cccs2)C1 (stereo not shown) [Example D10, N,N′-(1,2-ethynediyldi-4,1-phenylene)bis(5-oxo-1-(2-(2-thienyl)ethyl)-3-pyrrolidinecarboxamide)] | 1000 to 10000 | 
24 | C[C@@H](C(=O)N1CCC[C@H]1C(=O)Nc1ccc(C#Cc2ccc(NC(=O)[C@@H]3CCCN3C(=O)[C@H](C)c3ccccc3)cc2)cc1)c1ccccc1 [VN9, (2S,2′S)-N,N′-(1,2-ethynediyldi-4,1-phenylene)bis(1-((2R)-2-phenylpropanoyl)-2-pyrrolidinecarboxamide)] | < 4.57 | 
25 | CC(=O)N1CCC[C@H]1C(=O)Nc1ccc(C#Cc2ccc(NC(=O)C3CCN(C(=O)OCc4ccccc4)C3)cc2)cc1 (stereo partly drawn) [Example D4, Benzyl 3-((4-((4-((1-acetyl-L-prolyl)amino)phenyl)ethynyl)phenyl)carbamoyl)-1-pyrrolidinecarboxylate] | 1000 to 10000 | 
